Laboratory results reported in patent publication US20230295133A1, “PROCESS FOR PREPARING A COMPOUND USEFUL TO TREAT MYCOSES” (PULMOCIDE LIMITED, priority 2014, published 2023).
In brackets after ≈: the same amount, converted by molar mass.

Assays:
[1] = test system: aspergillus fumigatus infection of BEAS2B cells; experiment: Aspergillus fumigatus infection of bronchial epithelial cells (GM in supernatant); assay type: cell-based; conditions: bronchial epithelial cells infected with Aspergillus fumigatus; read-out: MIC50 Infection of BEAS2B cells
Protocol: BEAS2B cells were seeded in 96-well plates (100 µL; 30,000 cells / well; Catalogue No 3596, Sigma Aldrich, Dorset, UK) in 10% FBS RPMI-1640 and were then incubated (37° C., 5% CO2) for one day before experimentation. Test compounds (0.5 µL DMSO solution) or vehicle (DMSO) were added to each well to give a final DMSO concentration of 0.5%. BEAS2B cells were incubated with test compounds for 1 hr (35° C., 5% CO2) before infection with aspergillus fumigatus (20 µL; Public Health England) conidia suspension (0.5×10^5 /ml in 10% FBS RPMI-1640). The plate was incubated for 24 hr (35° C., 5% CO2). Supernatant (50 µL) was collected and transferred to a PCR plate (Catalogue No L1402-9700, Starlab, Milton Keynes, UK), which was frozen (-20° C.) until use. After thawing, supernatant (5 µL) was diluted 1:20 by adding R7-PBS solution (95 µL; 1:4 R7 to PBS; Bio-Rad Laboratories, Redmond, WA, USA). GM levels in these samples (50 µL) were measured using Platelia GM-EIA kits (Bio-Rad Laboratories, Redmond, WA, USA). The percentage inhibition for each well was calculated and the IC50 value was calculated from the concentration-response curve generated for each test compound.

[2] = Cell viability: resazurin assay; assay type: cell-based, human; conditions: human, BEAS2B cells; n = 3-5
Protocol: BEAS2B cells were seeded in 384-well plates (100 µL; 3000 / well /; BD Falcon, Catalogue No 353962) in RPMI-LHC8 (RPMI-1640 and LHC8 media combined in equal proportions) one day before experimentation. For cell-free control wells, RPMI-LHC8 (100 µL) was added. Test compounds (0.5 µL of a DMSO solution) were added to give a final DMSO concentration of 0.5% using an Integra VIAFLO 96 (Integra, Zizers, Switzerland). BEAS2B cells were incubated with each test compound for 1 day (37° C. / 5% CO2 in RPMI-LHC8). After addition of resazurin stock solution (5 µL, 0.04%) the plates were incubated for a further 4 hr (37° C. / 5% CO2). The fluorescence of each well at 545 nm (excitation) and 590 nm (emission) was determined using a multi-scanner (Clariostar: BMG Labtech). The percentage loss of cell viability was calculated for each well relative to vehicle (0.5% DMSO) treatment. Where appropriate, a CC50 value was calculated from the concentration-response curve generated from the concentration-response curve for each test compound.

[3] = test system: Aspergillus fumigatus L98H (TR34/L98H); experiment: Broth microdilution assay (modified EUCAST); assay type: cell-based; conditions: Aspergillus fumigatus, read-out: MIC75 against Aspergillus fumigatus isolate L98H
Protocol: (§1) This assay was conducted using a modified method published by EUCAST (Rodriguez-Tudela et al., 2008). Spores of aspergillus fumigatus (NCPF2010, NCPF7010 (Methionine 220 mutation), NCPF7099 (Glycine G54 mutation) from Public Health England, Wiltshire; TR34/L98H mutants from St Louis Hospital, Paris, France) were cultured in Sabouraud dextrose agar for 3 days. A stock spore suspension was prepared from a Sabouraud dextrose agar culture by washing with PBS-tween (10 mL; PBS containing 0.05% Tween-20, 100 U/mL Penicillin and 100 U/mL Streptomycin). The spore count was assessed using a Neubauer haemocytometer and then adjusted to 10^6 spores/mL with PBS. A working suspension of spores (2 × 10^5 spores/mL) was prepared in filter sterilised, BSA MOPS RPMI-1640 (50 mL; RPMI-1640 containing 2 mM L-glutamine, 0.5% BSA, 2% glucose, 0.165 M MOPS, buffered to pH 7 with NaOH). For the assay, BSA MOPS RPMI-1640 (50 µL/well) was added throughout the 384-well plate (Catalogue number 353962, BD Falcon, Oxford, UK) first. Test compounds (0.5 µL DMSO solution) were then added in quadruplicate using an Integra VIAFLO 96 (Integra, Zizers, Switzerland), and mixed well using a plate mixer. Subsequently 50 µL of the working spore suspension prepared above was added to all wells except non-spore control wells. For non-spore control wells, BSA MOPS-RPMI solution (50 µL/well) was added instead. The plate was covered with a plastic lid, and incubated (35° C. with ambient air) for 48 hr. The OD of each well at 530 nm was determined using a multi-scanner (Clariostar: BMG, Buckinghamshire, UK). The percentage inhibition for each well was calculated and the MIC50, MIC75 and MIC90 values were calculated from the concentration-response curve generated for each test compound.

[4] = test system: Aspergillus fumigatus NCPF2010; experiment: Broth microdilution assay (modified EUCAST); assay type: cell-based; conditions: Aspergillus fumigatus, NCPF2010, read-out: MIC75 against Aspergillus fumigatus isolate NCPF2010
Protocol: as §1

[5] = test system: Aspergillus fumigatus NCPF7099; experiment: Broth microdilution assay (modified EUCAST); assay type: cell-based; conditions: Aspergillus fumigatus, NCPF7099, n = 3, read-out: MIC75 against Aspergillus fumigatus isolate NCPF7099
Protocol: as §1

[6] = test system: Aspergillus fumigatus NCPF7100; experiment: Broth microdilution assay (modified EUCAST); assay type: cell-based; conditions: Aspergillus fumigatus, NCPF7100, read-out: MIC75 against Aspergillus fumigatus isolate NCPF7100

Row | Compound | MIC50 [1] [µM] | CC50 at 1 day [2] [µM] | MIC [3] [µM] | MIC [4] [µM] | MIC [5] [µM] | MIC [6] [µM]
1 | Cc1cc(N2CCN(c3ccc(C(=O)Nc4cc(F)cc(F)c4)cc3)CC2)ccc1OC[C@@H]1CO[C@@](Cn2cncn2)(c2ccc(F)cc2F)C1 [Example 28, 4-(4-(4-(((3R, 5R)-5-((1H-1,2,4-triazol-1-yl)methyl)-5-(2,4-difluorophenyl)tetrahydrofuran-3-yl)methoxy)3-methylphenyl)piperazin-1-yl)-N-(3,5-difluorophenyl)benzamide] | 0.0117 (≈ 0.0082 µg/mL) | > 14.3 | 0.198 (≈ 0.139 µg/mL) | 0.0319 (≈ 0.0224 µg/mL) | 0.0266 (≈ 0.0186 µg/mL) | 0.0361 (≈ 0.0253 µg/mL)
2 | Cc1cc(N2CCN(c3ccc(C(=O)Nc4cccc(F)c4)cc3)CC2)ccc1OC[C@@H]1CO[C@@](Cn2cncn2)(c2ccc(F)cc2F)C1 [Example 14, 4-(4-(4-(((3R, 5R)-5-((1H-1,2,4-triazol-1-yl)methyl)-5-(2,4-difluorophenyl)tetrahydrofuran-3-yl)methoxy)3-methylphenyl)piperazin-1-yl)-N-(3-fluorophenyl)benzamide] | 0.00836 (≈ 0.00571 µg/mL) | > 14.6 | 0.0735 (≈ 0.0502 µg/mL) | 0.0431 (≈ 0.0294 µg/mL) | 0.0332 (≈ 0.0227 µg/mL) | 0.041 (≈ 0.028 µg/mL)
3 | NS(=O)(=O)c1ccc(NC(=O)c2ccc(N3CCN(c4ccc(OCC5CO[C@@](Cn6cncn6)(c6ccc(F)cc6F)C5)c(F)c4)CC3)cc2)cc1 (stereo in doubt) [Example 22, 4-(4-(4-(((3R,5R)-5-((1H-1,2,4-triazol-1-yl)methyl)-5-(2,4-difluorophenyl)tetrahydrofuran-3-yl)methoxy)-3-fluorophenyl)piperazin-1-yl)-N-(4-sulfamoylphenyl)benzamide] | 0.00477 (≈ 0.00357 µg/mL) | > 13.4 | > 1.34 | 0.0113 (≈ 0.00845 µg/mL) | 0.0164 (≈ 0.0123 µg/mL) | 0.022 (≈ 0.0165 µg/mL)
4 | Cc1cc(N2CCN(c3ccc(C(=O)Nc4ccc(OC(F)F)cc4)cc3)CC2)ccc1OC[C@@H]1CO[C@@](Cn2cncn2)(c2ccc(F)cc2F)C1 [Example 12, 4-(4-(4-(((3R,5R)-5-((1H-1,2,4-triazol-1-yl)methyl)-5-(2,4-difluorophenyl)tetrahydrofuran-3-yl)methoxy)-3-methylphenyl)piperazin-1-yl)-N-(4-difluoromethoxyphenyl)benzamide] | 0.0973 (≈ 0.0711 µg/mL) | > 13.7 | 0.0459 (≈ 0.0335 µg/mL) | 0.0134 (≈ 0.00979 µg/mL) | 0.0228 (≈ 0.0167 µg/mL) | 0.0303 (≈ 0.0221 µg/mL)
5 | Cc1cc(N2CCN(c3ccc(C(=O)Nc4ccc(Cl)c(F)c4)cc3)CC2)ccc1OC[C@@H]1CO[C@@](Cn2cncn2)(c2ccc(F)cc2F)C1 [Example 30, 4-(4-(4-(((3R, 5R)-5-((1H-1,2,4-triazol-1-yl)methyl)-5-(2,4-difluorophenyl)tetrahydrofuran-3-yl)methoxy)-3-methylphenyl)piperazin-1-yl)-N-(4-chloro-3-fluorophenyl)benzamide] | 1.05 (≈ 0.753 µg/mL) | > 13.9 | 0.191 (≈ 0.137 µg/mL) | 0.0584 (≈ 0.0419 µg/mL) | 0.0347 (≈ 0.0249 µg/mL) | 0.0413 (≈ 0.0296 µg/mL)
6 | Cc1cc(N2CCN(c3ccc(C(=O)Nc4ccc(F)cn4)cc3)CC2)ccc1OC[C@@H]1CO[C@@](Cn2cncn2)(c2ccc(F)cc2F)C1 [Example 6, 4-(4-(4-(((3R,5R)-5-((1H-1,2,4-Triazol-1-yl)Methyl)-5-(2,4-Difluorophenyl)Tetra Hydrofuran-3-yl)Methoxy)-3-Methylphenyl)Piperazin-1-yl)-N-(5-Fluoropyridin-2-yl) Benzamide] | 0.0239 (≈ 0.0163 µg/mL) | > 14.6 | 0.131 (≈ 0.0896 µg/mL) | 0.0125 (≈ 0.00855 µg/mL) | 0.0212 (≈ 0.0145 µg/mL) | 0.0214 (≈ 0.0146 µg/mL)
7 | Cc1cc(N2CCN(c3ccc(C(=O)Nc4cccc(C#N)n4)cc3)CC2)ccc1OC[C@@H]1CO[C@@](Cn2cncn2)(c2ccc(F)cc2F)C1 [Example 36, 4-(4-(4-(((3R, 5R)-5-((1H-1,2,4-triazol-1-yl)methyl)-5-(2,4-difluorophenyl)tetrahydrofuran-3-yl)methoxy)3-methylphenyl)piperazin-1-yl)-N-(6-cyanopyridin-2-yl)benzamide] | 0.00352 (≈ 0.00243 µg/mL) | > 14.5 | 0.134 (≈ 0.0926 µg/mL) | 0.041 (≈ 0.0283 µg/mL) | 0.0445 (≈ 0.0307 µg/mL) | 0.0346 (≈ 0.0239 µg/mL)
8 | CNS(=O)(=O)c1ccc(NC(=O)c2ccc(N3CCN(c4ccc(OC[C@@H]5CO[C@@](Cn6cncn6)(c6ccc(F)cc6F)C5)c(C)c4)CC3)cc2)cc1 [Example 20, 4-(4-(4-(((3R, 5R)-5-((1H-1,2,4-triazol-1-yl)methyl)-5-(2,4-difluorophenyl)tetrahydrofuran-3-yl)methoxy)-3-methylphenyl)piperazin-1-yl)-N-(4-(N-methylsulfamoyl)phenyl)benzamide] | 0.0361 (≈ 0.0274 µg/mL) | > 13.2 | 0.0461 (≈ 0.0349 µg/mL) | 0.0188 (≈ 0.0142 µg/mL) | 0.0111 (≈ 0.00841 µg/mL) | 0.0146 (≈ 0.0111 µg/mL)
9 | Cc1cc(N2CCN(c3ccc(C(=O)Nc4ccc(S(=O)(=O)N(C)C)cc4)cc3)CC2)ccc1OC[C@@H]1CO[C@@](Cn2cncn2)(c2ccc(F)cc2F)C1 [Example 21] | 0.00386 (≈ 0.00298 µg/mL) | > 13 | 0.0517 (≈ 0.0399 µg/mL) | 0.0374 (≈ 0.0289 µg/mL) | 0.0211 (≈ 0.0163 µg/mL) | 0.0317 (≈ 0.0245 µg/mL)
10 | Cc1cc(N2CCN(c3ccc(C(=O)Nc4ccc(OC(F)F)c(F)c4)cc3)CC2)ccc1OC[C@@H]1CO[C@@](Cn2cncn2)(c2ccc(F)cc2F)C1 [Example 25, 4-(4-(4-(((3R,5R)-5-((1H-1,2,4-triazol-1-yl)methyl)-5-(2,4-difluorophenyl)tetrahydrofuran-3-yl)methoxy)-3-methylphenyl)piperazin-1-yl)-N-(4-(difluoromethoxy)-3-fluorophenyl) benzamide] | 0.23 (≈ 0.172 µg/mL) | > 13.4 | 0.0659 (≈ 0.0493 µg/mL) | 0.0845 (≈ 0.0633 µg/mL) | 0.0251 (≈ 0.0188 µg/mL) | 0.0476 (≈ 0.0356 µg/mL)
11 | Cc1cc(N2CCN(c3ccc(C(=O)Nc4ccc(F)cc4)cc3)CC2)cc(C)c1OC[C@@H]1CO[C@@](Cn2cncn2)(c2ccc(F)cc2F)C1 [Example 15, 4-(4-(4-(((3R,5R)-5-((1H-1,2,4-triazol-1-yl)methyl)-5-(2,4-difluorophenyl)tetrahydrofuran-3-yl)methoxy)-3,5-dimethylphenyl)piperazin-1-yl)-N-(4-fluorophenyl)benzamide] | 0.00764 (≈ 0.00532 µg/mL) | > 14.4 | > 1.44 | 0.029 (≈ 0.0202 µg/mL) | 0.0184 (≈ 0.0128 µg/mL) | 0.00845 (≈ 0.00589 µg/mL)
